# Source: patent US20120258117A1, “Methods and compositions for modulation of histone ubiquitination” (priority 2011, published 2012)
# How the values were obtained:
# U87 cells [1] = assay: Clonogenic assay (plating efficiency); type: cell-based, human; conditions: up to 9 days treatment, re-plated 1000-4000 cells, 14 days without resveratrol, dose-dependent
# Protocol: (§1) Monolayer cultures of glioma cells were trypsinized and appropriate cell dilutions were re-plated. After 14 days, cultured cells were stained with 0.4% Coomassie Blue G250 in 50% methanol and 5% acetic acid. Colonies of 50 cells or more were counted. Plating efficiencies (PE) were calculated using the formula PE=(number of colonies counted/number of cells seeded)×100%. […] Monolayer cultures of glioma cells were trypsinized and seeded 1000, 2000, and 4000 cells separately in 60 mm culture dishes for incubation without further resveratrol treatment. After two weeks, these cell cultures were stained with 0.4% Coomassie Blue G250 in 50% methanol and 5% acetic acid. Colonies that contained more than 50 cells were counted. Cell clonogenicity was calculated with plating efficiencies (PE) using the formula PE=(number of colonies counted/number of cells seeded)×100%.
# U118 cells [2] = assay: Clonogenic assay (plating efficiency); type: cell-based, human; conditions: up to 9 days treatment, re-plated 1000-4000 cells, 14 days without resveratrol, dose-dependent
# Protocol: as §1
# [3] = tested on: mono-ubiquitination of histone H2B at K120 (uH2B); assay: Western analysis of uH2B, acute (4-hour) resveratrol treatment; type: cell-based, human
# Protocol: (§2) For short-term resveratrol treatment, cells in 60 mm dishes were allowed to grow to 40%-50% confluency. Their original media were changed to 5 ml DMEM media containing glucose (4.5 g/L) as the only carbon source (without both L-glutamine and sodium pyruvate). After one hour of media change, cells were collected as non-treated or treated with 5 μL acetone or resveratrol in 5 μL acetone vehicle for 4 hours and then collected for Western analysis. For long-term resveratrol treatment, 3×10^5 of U87 or U118 glioma cells were plated in 100 mm dishes. One day later, the culture media were replaced with fresh medium (10 mL/dish). […]
# (§3) Cultured cells were harvested on ice (3-5 min) by scraping in the medium, centrifuged with about 300 relative centrifugal forces (RCF) for 2 minutes. […] Total protein was separated by 12% SDS polyacrylamide gel electrophoresis and analyzed with antibodies to H2B (Millipore, Billerica, Mass.), mono-ubiquitinated H2B (uH2B, MediMabs, Montreal, Quebec, Canada), RNF20 (Abcam, Cambridge, Mass.), p53 (Santa Cruz Biotechnology, Santa Cruz, Calif.). Immunoreactive bands were detected using SuperSignal kit (Thermo Scientific, Waltham, Mass.). […]
# U87 cells [4] = assay: Cell proliferation (viable cell count, Trypan blue exclusion); type: cell-based, human; conditions: cells counted at 3, 6 and 9 days post treatment, dose- and time-dependent
# Protocol: (§4) U87 MG and U118 MG (hereafter abbreviated as U87, U118 respectively) human glioblastoma (glioma) cell lines were kindly provided by Dr. Hui Zhang and Dr. Hong Sun. MCF7 (human breast cancer), H1299 (non-small cell lung carcinoma), and PC3 (human prostate cancer) cell lines were obtained from Dr. Giuseppe Pizzorno. Normal human dermal fibroblasts, HDF and normal human mammary epithelial cells, HMEpC, were purchased from Cell Applications (San Diego, Calif.). U118, U87, and MCF7 cultures were grown in high-glucose DMEM supplemented with 10% Fetal Bovine Serum (FBS, HyClone, Waltham, Mass.) and 1% Penicillin/Streptomycin. H1299 was grown in RPMI with 10% FBS and 1% Pen/Strep. PC3 cells were in F12K Medium with 10% FBS and 1% antibiotics. […] Cell number was measured by a hemacytometer (Hausser Scientific, Horsham, Pa.). Cell population doubling time (Td) was calculated from the exponential portion of the growth curve using the equation Td=0.693t/ln(Nt/N0), where t is time, and Nt and N0 represent cell numbers at time t and initial time, respectively (Y. Zhang, et al., Cancer Res 62 (2002) 1205-12). […]
# (§5) To examine the effects of resveratrol on glioma cells, 5×10^4 U87 or U118 glioblastoma (Grade IV glioma cell) lines were plated in 60 mm dishes. […] Cells were then trypsinized and cell numbers counted at 3, 6, and 9 days post treatment.
# U118 cells [5] = assay: as above; type: cell-based, human; conditions: cells counted at 3, 6 and 9 days post treatment, dose- and time-dependent
# Protocol: as §4, §5
# U118 glioma cells = assay: Senescence-associated-β-galactosidase (SA-β-gal) staining; type: cell-based, human; conditions: resveratrol-induced hypertrophic cells
# Protocol: (§6) Senescence-β-galactosidase staining was performed with a kit (Cat. #9860, Cell Signaling, Danvers, Mass.) according to manufacturer's protocol. Briefly, cells in 35 mm well were washed with 2 mL PBS, fixed for 10-15 minutes in 2 mL fixative solution, washed twice with 2 mL PBS, and then incubated in SA-β-gal staining solution overnight at 37° C. To determine whether cellular hypertrophy induced by resveratrol was associated with cellular senescence of glioma cells, expression of senescence-associated-β-galactosidase (SA-β-gal) marker was tested (G. P. Dimri, et al., Proc Natl Acad Sci USA 92 (1995) 9363-7; G. P. Dimri, et al., Biol Signals 5 (1996) 154-62).
# U87 glioma cells = assay: as above; type: cell-based, human; conditions: resveratrol-induced hypertrophic cells
# Protocol: as §6
# U87 xenograft = assay: Growth of human tumor xenograft from resveratrol-pretreated cells; type: in vivo, nude (nu/nu) mice; conditions: U87 treated 9 days in culture, 2×10^6 viable cells s.c. in nude mice; volume at 27 days post injection
# Protocol: (§7) U87 or U118 Cells (2,000,000 in 0.1 ml PBS) were injected subcutaneously in the right flank of the female nude (nu/nu) mice (4-6 weeks old; Charles River Laboratories, Wilmington, Mass.). Five nude mice were used for each group. U87 tumor volume was measured at 27 days post injection while U118 tumor volume at 125 days post injection. When tumors were palpable, they were measured by a Vernier caliper in indicated days after injection. Tumor volume (TV) was calculated as follows: TV (mm^3)=LXW^2/2, where L is the longest dimension of the tumor (in mm), and W is the shortest dimension of the tumor. […] Glioma cells were then trypsinized, and 2×10^6 viable cells (by Trypan blue exclusion assay) were collected in 0.1 ml PBS. These cells were subsequently injected subcutaneously in the right flank of nude mice [female (nu/nu), 4-6 weeks old, 5 mice per group]. When the tumor was palpable, the size was measured with a Vernier caliper. Tumor volume was calculated (TV) using the formula: TV (mm^3)=LXW^2/2, in which L was the longest dimension of the tumor (in mm), and W was the shortest dimension of the tumor.
# U118 xenograft = assay: as above; type: in vivo, nude (nu/nu) mice; conditions: U118 treated 9 days in culture, 2×10^6 viable cells s.c. in nude mice; volume at 125 days post injection
# Protocol: as §7
# U87 cells [6] = assay: Cellular hypertrophy / cell morphology; type: cell-based, human
# Description: Specifically, resveratrol transformed spindle-shaped glioma cells to enlarged and irregular flatten-shaped ones. The mean diameter of the resveratrol-treated U87 was 5 fold longer than the diameter parallel to the spindle axis of the mock-or vehicle-treated glioma cells. In contrast, mock and vehicle (acetone) treatment had no effect on inducing cellular hypertrophy.
# It was then examined whether depletion of RNF20 could induce cellular senescence in glioma cells. Depletion of RNF20 induced similar cellular hypertrophy as observed with resveratrol treatment. Specifically, depletion of RNF20 transformed spindle-shaped glioma cells into extremely enlarged and irregular flatten-shaped ones (data not shown).
# U118 cells [7] = assay: Cellular hypertrophy / cell morphology; type: cell-based, human; conditions: resveratrol treatment
# [8] = tested on: mono-ubiquitination of histone H2B at K120 (uH2B); assay: Western analysis of uH2B, chronic (up to 9-day) resveratrol treatment; type: cell-based, human
# Protocol: as §2, §3
compound,measurement,setting,value
"Oc1ccc(/C=C/c2cc(O)cc(O)c2)cc1 [resveratrol, 3,4′,5-trihydroxy-trans-stilbene]","clonogenicity (plating efficiency, colonies of more than 50 cells)",U87 cells [1],marked decrease in their propensity for forming colonies
same,"clonogenicity (plating efficiency, colonies of more than 50 cells)",U118 cells [2],marked decrease in their propensity for forming colonies
same,uH2B level (Western),"[3]; 10, 100, 500 μM for 4 h, U87, U118, MCF7, H1299, PC3, HDF, HMEpC",inhibited uH2B within 4 hours in a dose-dependent manner
same,uH2B level (Western),"[3]; acute incubation, high dose 500 μM",effective in inhibiting uH2B
same,proliferation of glioma cells (viable cell number),U87 cells [4],significantly inhibited proliferation
same,proliferation of glioma cells (viable cell number),U118 cells [5],significantly inhibited proliferation
same,expression of SA-β-gal senescence marker,U118 glioma cells,SA-β-gal was detected
same,expression of SA-β-gal senescence marker,U87 glioma cells,SA-β-gal was detected
same,tumorigenicity (tumor volume) in xenograft model,U87 xenograft,inhibited the tumorigenecity
same,tumorigenicity (tumor volume) in xenograft model,U118 xenograft,inhibited the tumorigenecity
same,mean diameter of treated cells versus diameter parallel to the spindle axis of mock- or vehicle-treated cells,U87 cells [6],5 fold
same,cellular hypertrophy (cell volume and cell morphology),U87 cells [6]; resveratrol treatment,induced dramatic changes in cell volume and cell morphology
same,cellular hypertrophy (cell volume and cell morphology),U118 cells [7],induced dramatic changes in cell volume and cell morphology
same,uH2B level (Western),"[8]; U87, chronic treatment up to 9 days, 6, 20, 60 μM",inhibited uH2B
same,uH2B level (Western),"[8]; U118, chronic treatment up to 9 days, 6, 10, 20 μM",inhibited uH2B
